This note sets out measurements from PubChem BioAssay (NCI).

Values joined by “and” are separate entries in the source; they are usually repeats but may differ in a detail not shown here. Equal entries are not always repeated.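 Results reflect a 48-hour exposure of cells in 96-well plates to compound at five concentrations. GI50 = concentration required for 50% inhibition of growth. TGI: total growth inhibition.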

Among the test systems are XF 498 CNS; MDA-MB-435; PC-3 prostate; DMS 273 small cell lung; HOP-18 NSCLC; KM20L2 colon; DU-145 prostate; M19-MEL melanoma; DLD-1 colon; MDA-MB-231 breast.
Assay in all cases: NCI-60 cell line screen, 48 h

Take `CN(O)C(=S)c1ccccc1`: the TGI with XF 498 CNS is above 100 µM; in the assay with MDA-MB-435, above 100 µM; in the assay with PC-3 prostate, above 59.1 µM; with DMS 273 small cell lung, 4.03 µM; in the assay with HOP-18 NSCLC, above 100 µM; in the assay with KM20L2 colon, above 100 µM. Also, the TGI in the assay with DU-145 prostate is above 100 µM; in the assay on M19-MEL melanoma, 4.68 µM; in the assay on DLD-1 colon, 4.52 µM; with MDA-MB-231 breast it was above 24.9 µM.
In the case of `CCC[CH2][Sn]([CH2]CCC)([O]C(=O)c1cc(F)cc(F)c1)[O][Sn]([CH2]CCC)([CH2]CCC)[O]C(=O)c1cc(F)cc(F)c1`, the GI50 in the assay with XF 498 CNS was 1.4 µM; in the assay on DMS 273 small cell lung it was 1.23 µM; in the assay with HOP-18 NSCLC it was 1.96 µM; with KM20L2 colon, 3.1 µM; in the assay on M19-MEL melanoma, 0.519 µM; with DLD-1 colon it was 1.15 µM. The TGI came out at 2.71 µM in the assay on XF 498 CNS; 2.47 µM with DMS 273 small cell lung; 3.38 µM in the assay on HOP-18 NSCLC; 10.6 µM in the assay on KM20L2 colon; 2 µM in the assay on M19-MEL melanoma; 2.41 µM in the assay on DLD-1 colon.
For `Cc1ccc(/C=C(\C#N)c2ccccc2)cc1`, the TGI with DMS 273 small cell lung, with HOP-18 NSCLC, in the assay on KM20L2 colon, in the assay on M19-MEL melanoma and in the assay with DLD-1 colon was above 100 µM in each case.
For the compound `O=C1C(=O)N(c2cccc(C(F)(F)F)c2)C(=O)C(=O)C1c1nc2ccccc2s1`, the TGI with XF 498 CNS, in the assay with MDA-MB-435, with PC-3 prostate, in the assay with DMS 273 small cell lung, with HOP-18 NSCLC and with KM20L2 colon was above 100 µM each time. The TGI with DU-145 prostate, in the assay with M19-MEL melanoma, with DLD-1 colon and in the assay on MDA-MB-231 breast was above 100 µM in each case.
For the compound `Cc1ccc(NC(=O)CC/C(CC(=O)C(C)(C)C)=N\Nc2ccc([N+](=O)[O-])cc2[N+](=O)[O-])cc1C`, the TGI in the assay with HOP-18 NSCLC, in the assay on KM20L2 colon, in the assay with M19-MEL melanoma and in the assay with DLD-1 colon was above 100 µM throughout.
With `O=C(O)CCSC(=S)Nc1cccc(F)c1`, the TGI in the assay on DMS 273 small cell lung is above 100 µM; in the assay on HOP-18 NSCLC it was above 100 µM; in the assay on KM20L2 colon, above 100 µM; in the assay with M19-MEL melanoma, 88.8 µM; in the assay on DLD-1 colon it was above 100 µM.
For the compound `O=C(O)CCSC(=O)Nc1ccccc1Cl`, the TGI in the assay with XF 498 CNS, in the assay on DMS 273 small cell lung, with HOP-18 NSCLC, in the assay with KM20L2 colon, with M19-MEL melanoma and in the assay on DLD-1 colon was above 100 µM in each case.
With `COc1ccc(/C=C\c2cc(OC)c(OC)c(OC)c2)c(O)c1O`, the GI50 in the assay with XF 498 CNS is 2.95 µM; in the assay with DMS 273 small cell lung, 0.303 µM; with HOP-18 NSCLC, 109 µM; with KM20L2 colon, 26.6 µM; in the assay on M19-MEL melanoma, 1.42 µM; in the assay on DLD-1 colon, 1.52 µM. Further, the TGI in the assay on MDA-MB-435 is 0.0163 µM; in the assay on PC-3 prostate, 36.1 µM; with DMS 273 small cell lung it was 63.1 µM; in the assay on HOP-18 NSCLC, 185 µM; with KM20L2 colon it was 76.9 µM; in the assay with M19-MEL melanoma it was 17.8 µM and 11.2 µM. Also, the TGI in the assay with DLD-1 colon is above 85.8 µM; in the assay with MDA-MB-231 breast, 18.5 µM.
Turning to `C=C1C(=O)OC2C1C(OC(=O)/C(C)=C\C)CC1(CO1)C1C(O)C=C(C)C21O` (stereo not drawn), the TGI in the assay on XF 498 CNS was 25.7 µM; in the assay with DMS 273 small cell lung it was 20 µM; with HOP-18 NSCLC it was 23.3 µM; with KM20L2 colon, 10.8 µM; in the assay with M19-MEL melanoma it was 25.4 µM; in the assay with DLD-1 colon it was 7.8 µM.
For `O=C(O)CC1CC=C[C@H]2c3cc4c(cc3C(=O)NC12)OCO4` (stereo partly drawn), the TGI in the assay on DMS 273 small cell lung, in the assay with KM20L2 colon, in the assay with M19-MEL melanoma and with DLD-1 colon was above 75 µM each time.
Take `Cc1c(C2Cc3ccccc3N2)c2ccccc2n1C` (stereo not drawn): the TGI in the assay on XF 498 CNS, with DMS 273 small cell lung, with KM20L2 colon, with M19-MEL melanoma and in the assay on DLD-1 colon was above 100 µM in each case.
As for `COC(=O)C(=O)C(C(=O)C=C(C)C)C(=O)C(=O)Nc1nc2ccc([N+](=O)[O-])cc2s1` (stereo not drawn), the TGI with DMS 273 small cell lung is above 100 µM; in the assay with HOP-18 NSCLC, 54.6 µM; in the assay with KM20L2 colon, above 100 µM; in the assay on M19-MEL melanoma, above 100 µM; in the assay with DLD-1 colon, above 100 µM.
On to `CC1=C2[C@H](c3ccccc3)C3C=CC2(c2ccccc23)N(C(=O)C(c2ccccc2)c2ccccc2)C1=O` (stereo partly drawn), for which the TGI in the assay with XF 498 CNS, in the assay on DMS 273 small cell lung, in the assay with HOP-18 NSCLC, in the assay on KM20L2 colon, in the assay with M19-MEL melanoma and with DLD-1 colon was above 100 µM in each case.
Regarding `Cn1nc(-c2ccccc2)c(C(=O)/C=C/c2ccc(F)cc2)c(N2CCOCC2)c1=O`, the TGI with XF 498 CNS is 42.7 µM; with DMS 273 small cell lung it was 53 µM; with HOP-18 NSCLC, 37.3 µM; in the assay on KM20L2 colon, 31.6 µM; in the assay on M19-MEL melanoma, 39 µM; in the assay with DLD-1 colon, above 100 µM.
Turning to `CC1=NN(C(=O)c2ccc(Cl)cc2)C(=O)/C1=C/c1ccco1`, the TGI in the assay with XF 498 CNS, in the assay on KM20L2 colon, in the assay on M19-MEL melanoma and in the assay with DLD-1 colon was above 100 µM each time.
Regarding `CCCCCCCCCOC(=S)NCCCCC`, the TGI with DMS 273 small cell lung was 58.3 µM; in the assay with HOP-18 NSCLC it was above 100 µM; in the assay with KM20L2 colon, 59.3 µM; in the assay with M19-MEL melanoma, above 100 µM; with DLD-1 colon it was above 100 µM.
As for `CCCCCCCCCCCCCC(=O)OCC1OC(n2cc(F)c(=O)[nH]c2=O)C(N)C(OC(=O)CCCCCCCCCCCCC)C1O` (stereo not drawn), the TGI with DMS 273 small cell lung, with KM20L2 colon and in the assay with M19-MEL melanoma was above 100 µM throughout.
Consider `COc1cc(/C=C\c2cc(/C=C\c3ccc(O)c(OC)c3)n(C(=O)CNc3ccc(Cl)cc3)n2)ccc1O`, for which the GI50 in the assay on MDA-MB-435 is 2.52 µM; with PC-3 prostate, 3.38 µM; with DU-145 prostate, 3.25 µM; in the assay with MDA-MB-231 breast it was 4.02 µM. Further, the TGI in the assay on MDA-MB-435 stood at 23.4 µM; in the assay with PC-3 prostate, 47.9 µM; with DU-145 prostate it was 12.3 µM; in the assay with MDA-MB-231 breast it was 45 µM.
